pIC50, pKi: −log10 of the molar value. “Also recorded” adds a separate entry of the source. Structures can show the parent of a compound that is named as a salt. Where two headings read alike, the source gives them in different places.
Tests used:
ETA receptors = molecular target: T1, ETA receptors (Homo sapiens, UniProt P25101); details: membrane preparations; read-out: IC50, inhibition of binding of ET-1 to ETA receptors; cited from earlier work
T1 sequence (P25101 21-427): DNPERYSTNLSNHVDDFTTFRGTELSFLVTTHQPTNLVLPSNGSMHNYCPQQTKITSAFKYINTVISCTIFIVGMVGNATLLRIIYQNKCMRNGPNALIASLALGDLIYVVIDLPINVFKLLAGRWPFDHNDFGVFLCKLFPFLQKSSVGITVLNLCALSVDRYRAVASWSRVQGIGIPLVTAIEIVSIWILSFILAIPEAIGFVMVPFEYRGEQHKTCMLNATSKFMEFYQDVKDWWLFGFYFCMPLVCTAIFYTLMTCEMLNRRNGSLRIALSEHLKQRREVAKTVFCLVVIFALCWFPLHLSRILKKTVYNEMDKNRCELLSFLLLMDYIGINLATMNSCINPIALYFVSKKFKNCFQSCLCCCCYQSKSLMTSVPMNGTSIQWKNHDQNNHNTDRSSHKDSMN

[1] = cited from earlier work
ETB receptors = molecular target: T2, ETB receptors (Homo sapiens, UniProt P24530); details: membrane preparations; read-out: IC50, inhibition of binding of ET-1 to ETB receptors; cited from earlier work
T2 sequence (P24530 27-442): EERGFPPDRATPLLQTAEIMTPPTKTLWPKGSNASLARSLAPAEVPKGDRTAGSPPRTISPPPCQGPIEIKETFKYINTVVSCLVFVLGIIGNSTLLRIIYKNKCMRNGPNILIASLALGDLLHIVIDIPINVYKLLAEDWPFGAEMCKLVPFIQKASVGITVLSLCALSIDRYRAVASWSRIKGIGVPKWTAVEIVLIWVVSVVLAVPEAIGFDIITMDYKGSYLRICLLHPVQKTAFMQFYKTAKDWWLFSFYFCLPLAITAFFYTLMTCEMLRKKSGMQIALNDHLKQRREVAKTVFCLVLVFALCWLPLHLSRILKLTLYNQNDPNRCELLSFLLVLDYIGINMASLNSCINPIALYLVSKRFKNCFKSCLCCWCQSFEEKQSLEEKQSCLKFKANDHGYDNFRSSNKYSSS

[2] = cited from earlier work; remark: listed apart in the source
Male Swiss Webster mice = assay: Tail-flick latency (antinociception) in mice; details: for tail flick latency, fold above vehicle: clonidine 0.3 mg/ml
rats = details: for analgesic effect of the agent alone (tail flick latency) / AUC0→360 of tail flick latency / effect on morphine analgesia in rats treated with BMS182874 / effect on oxycodone analgesia in rats treated with BMS182874: BMS182874 50 μg icv; for analgesic effect of the agent alone (tail flick latency) / AUC0→360 of tail flick latency: clonidine 1 mg/kg ip; for effect on Morphine analgesia / effect on Oxycodone analgesia: clonidine 1 mg/kg ip or BMS182874 50 μg icv; for effect on Morphine analgesia: morphine 8 mg/kg sc; for effect on Oxycodone analgesia / AUC0→360 of tail flick latency / effect on oxycodone analgesia in rats treated with BMS182874 / effect of antagonist on Clonidine potentiation of Oxycodone analgesia: oxycodone 4 mg/kg sc; for AUC0→360 of tail flick latency: each agent alone: morphine 8 mg/kg sc, Mean±S.E.M., n=6; for effect on morphine analgesia in rats treated with BMS182874: morphine 4 mg/kg sc; for effect of antagonist on Clonidine potentiation of Morphine analgesia / effect of antagonist on Clonidine potentiation of Oxycodone analgesia: idazoxan 2 mg/kg ip or yohimbine 2 mg/kg ip given 15 min before clonidine 1 mg/kg ip
healthy volunteers = details: clonidine 0.2 mg p.o., alone or with naloxone; cited from earlier work
[3] = tested on: patients after spinal fusion; details: cited from earlier work
goats = details: epidural; cited from earlier work
α2-adrenergic receptors = details: cited from earlier work
I1-imidazoline receptors = details: cited from earlier work
[4] = tested on: patients having coronary artery bypass graft surgery; details: cited from earlier work
μ-opioid receptors = μ-opioid receptors (Homo sapiens, UniProt P35372); details: relative to morphine; cited from earlier work
Chain of μ-opioid receptors (P35372 whole entry): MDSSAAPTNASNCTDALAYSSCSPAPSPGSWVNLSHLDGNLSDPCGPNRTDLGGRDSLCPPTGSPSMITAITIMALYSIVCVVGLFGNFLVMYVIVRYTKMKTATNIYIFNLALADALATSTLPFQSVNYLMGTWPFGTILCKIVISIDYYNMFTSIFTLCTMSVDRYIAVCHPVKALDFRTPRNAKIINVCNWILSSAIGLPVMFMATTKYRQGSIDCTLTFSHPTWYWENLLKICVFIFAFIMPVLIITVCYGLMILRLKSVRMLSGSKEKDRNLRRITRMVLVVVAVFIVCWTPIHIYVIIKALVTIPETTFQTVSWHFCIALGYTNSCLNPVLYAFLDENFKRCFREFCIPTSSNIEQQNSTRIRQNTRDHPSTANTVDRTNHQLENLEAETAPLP

4-amino-N-(3,4-dimethyloxazol-5-yl)-benzenesulfonamide [Sulfisoxazole]
pIC50 (ETA receptors): 6.22 | solubility [1]: highly soluble | pIC50 (ETB receptors): 4.66 | average steady state plasma concentration, mean ([2]; 500 mg oral four times a day, healthy volunteers): 63.4 µg/mL | drug excreted in urine by kidney ([2]; in 24 hours): 95% | binding to plasma proteins ([2]; in vivo): extensively bound to plasma proteins | maximum blood level (adverse reactions more frequent above) ([2]; in vivo): ≤ 200 µg/mL | potentiation of antinociception produced by morphine (Male Swiss Webster mice; sulfisoxazole 500 mg/kg oral + morphine 4 mg/kg s.c., AUC): 14%

Cc1noc(NS(=O)(=O)c2cccc3c(N(C)C)cccc23)c1C [BMS182874, 5-(dimethylamino)-N-(3,4-dimethyl-5-isoxazolyl)-1-naphthalene sulfonamide]
effect on the fall in temperature induced by clonidine (Body temperature in mice; BMS182874 2.0, 10.0, 50.0 μg/kg icv, clonidine 0.3 mg/kg i.p.): did not affect | effect on analgesic activity of clonidine (rats; rats, BMS182874 50 μg icv 15 min before clonidine 1.0 mg/kg ip): did not affect | analgesic effect of the agent alone (tail flick latency) (rats; rats): did not produce any analgesic effect | effect on Morphine analgesia (rats; rats): significantly potentiated; also recorded: Increase | effect on Oxycodone analgesia (rats; rats): potentiated; also recorded: Increase | AUC0→360 of tail flick latency (rats; rats): 4.47±1.49 sec.min | increase in tail flick latency (Male Swiss Webster mice; BMS182874 10 μg/kg icv + clonidine 0.3 mg/kg i.p., 1 and 2 hours post treatment, compared to vehicle of FIG. 5A): 5 fold | increase in tail flick latency (Male Swiss Webster mice; BMS182874 10 μg/kg icv + clonidine 0.3 mg/kg i.p., 4 hours post treatment): approximately 3 fold | increase in tail flick latency (Male Swiss Webster mice; BMS182874 10 μg/kg icv + clonidine 0.3 mg/kg i.p., by 6 hours post treatment): 2 fold | effect on clonidine analgesia (Male Swiss Webster mice; BMS182874 low and high dose (2.0 and 50.0 μg/kg, icv), clonidine 0.3 mg/kg i.p.): moderately potentiated | effect on the analgesic effect of clonidine (Male Swiss Webster mice; BMS182874 middle dose 10 μg/kg icv, clonidine 0.3 mg/kg i.p.): potentiated

Clc1cccc(Cl)c1NC1=NCCN1 [Clonidine, N-(2,6-dichlorophenyl)-4,5-dihydro-1H-imidazol-2-amine]
effect on body temperature (Body temperature in mice; clonidine 0.3, 1.0, 3.0 mg/kg i.p., all doses): decreased body temperature | duration of increased subjective and objective pain thresholds (healthy volunteers): at least 4 hours | pain score (visual analog scale) after clonidine ([3]; clonidine 5 micrograms/kg i.v. in 1st h then 0.3 microgram/kg/h for 11 h, mean±standard error): 26±3 mm | change in mean arterial pressure ([3]; clonidine group at T11): −26±2% | pain score (visual analog scale) before clonidine ([3]; clonidine group, starting value, mean±standard error): 42±5 mm | mean arterial pressure ([3]; clonidine group): 74±2 mmHg | morphine requirement, dose for each patient ([3]; clonidine group, i.m. morphine on demand): 3.8 ± 1 mg | duration of antinociception (goats): 5.5 h | pKi (α2-adrenergic receptors): 8.42 | pKi (I1-imidazoline receptors): 9.00 | effect on morphine analgesia in rats treated with BMS182874 (rats; clonidine 0.1 mg/kg ip): did not produce an increase in analgesic effect | effect on oxycodone analgesia in rats treated with BMS182874 (rats; clonidine 0.1 mg/kg ip): did not produce an increase in analgesic effect | effect on morphine analgesia in rats treated with BMS182874 (rats; clonidine 0.3 mg/kg ip): significant (P=0.016 and P=0.011, respectively) increase | effect on oxycodone analgesia in rats treated with BMS182874 (rats; clonidine 0.3 mg/kg ip): significant (P=0.02 and P=0.031, respectively) increase | effect on morphine analgesia in rats treated with BMS182874 (rats; clonidine 1.0 mg/kg ip): significant (P=0.016 and P=0.011, respectively) increase | effect on oxycodone analgesia in rats treated with BMS182874 (rats; clonidine 1.0 mg/kg ip): significant (P=0.02 and P=0.031, respectively) increase | analgesic effect of the agent alone (tail flick latency) (rats; rats): produced significant (P=0.00086) analgesia | effect on Morphine analgesia (rats; rats): significantly potentiated; also recorded: Increase | effect on Oxycodone analgesia (rats; rats): potentiated; also recorded: Increase | AUC0→360 of tail flick latency (rats; rats): 16.62±1.61 sec.min | AUC0→240 min from tail flick latency (Male Swiss Webster mice; Example 3, mice, morphine 4 mg/kg s.c., clonidine 2 mg/kg i.p. 30 min before morphine or vehicle, mean±SEM, N=6): 68.4±12.3 | AUC of tail flick latency compared to control mice (Male Swiss Webster mice; Example 5 study 2, clonidine 2 mg/kg i.p. alone, sulfisoxazole 1000 mg/kg oral alone): produced an increase in AUC | increase in tail flick latency (Male Swiss Webster mice; clonidine 0.3 mg/kg plus CMC, 2 hours post injury): 5 fold | tail flick latency at late time (Male Swiss Webster mice; clonidine 0.3 mg/kg plus CMC, by 6 hours): decreased to approximately the level of vehicle treated animals | tail flick latency, fold above vehicle (Male Swiss Webster mice; at 3 hours): approximately 3 fold | tail flick latency, fold above vehicle (Male Swiss Webster mice; by 5 hours): 2.5 fold | tail flick latency, fold above vehicle (Male Swiss Webster mice; immediately after injury): up to 4 fold | tail flick latency, fold over vehicle (Male Swiss Webster mice; clonidine 1.0 mg/kg i.p., at approximately 6 hours): 3 fold | tail flick latency, fold over vehicle (Male Swiss Webster mice; clonidine 1.0 mg/kg i.p., up to approximately 3 hours): approximately 5 fold | enhancement of the antinociception produced by morphine (Male Swiss Webster mice; clonidine 2 mg/kg i.p. + morphine 4 mg/kg s.c., AUC): 42% | tail flick latency, fold over vehicle (Male Swiss Webster mice; clonidine 3.0 mg/kg i.p., all time points measured): approximately 5 fold

c1ccc2c(c1)OCC(C1=NCCN1)O2 (stereo not shown) [Idazoxan, 2-(1,4-benzodioxan-2-yl)-2-imidazoline]
pKi (α2-adrenergic receptors): 8.44 | pKi (I1-imidazoline receptors): 6.73 | effect of antagonist on Clonidine potentiation of Morphine analgesia (rats; rats): did not affect; also recorded: No effect | effect of antagonist on Clonidine potentiation of Oxycodone analgesia (rats; rats): Blocked

CN1CC[C@]23c4c5ccc(O)c4O[C@H]2[C@@H](O)C=C[C@H]3[C@H]1C5.O=S(=O)(O)O [Morphine, 7,8-didehydro-4,5α-epoxy-17-methylmorphinan-3,6α-diol sulfate]
morphine dosage in the first 24 h [median (25th-75th percentiles)] ([4]; i.v. morphine group (PCA alone, control)): 37 (30.5-51) mg | time to extubation ([4]; i.v. morphine group): 330 (300-360) min | morphine dosage in the first 24 h [median (25th-75th percentiles)] ([4]; intrathecal morphine group (4 microg/kg plus i.v. PCA morphine)): 40.5 (15-61.5) mg

COc1ccc2c3c1O[C@H]1C(=O)CC[C@@]4(O)[C@@H](C2)N(C)CC[C@]314.Cl [Oxycodone, 4,5α-epoxy-14-hydroxy-3-methoxy-17-methylmorphinan-6-one hydrochloride]
affinity to the μ-opioid receptors, times less than morphine (μ-opioid receptors): > 20 times | AUC0→360 of tail flick latency (rats; rats): 18.23±2.32 sec.min

COC(=O)[C@@H]1[C@H]2C[C@H]3c4[nH]c5ccccc5c4CCN3C[C@@H]2CC[C@@H]1O [Yohimbine, 17α-hydroxy-yohimban-16α-carboxylate hydrochloride]
pKi (α2-adrenergic receptors): 7.66 | pKi (I1-imidazoline receptors): 4.66 | effect of antagonist on Clonidine potentiation of Morphine analgesia (rats; rats, hydrochloride): Blocked | effect of antagonist on Clonidine potentiation of Oxycodone analgesia (rats; rats, hydrochloride): Blocked

N=C(N)NC(=O)Cc1c(Cl)cccc1Cl [guanfacine]
duration of antinociception (goats): 8 h

— patent publication US20100022574A1, “Methods to Treat Pain Using an Alpha-2 Adrenergic Agonist and an Endothelin Antagonist” (EndogenX, Inc., priority 2008, published 2010)
